{"source": "patent US12421209B2", "about": "“Compounds” (Hoffmann-La Roche Inc., priority 2021, dated 2025)", "type_in_all_cases": "cell-based", "key": {"NLRP3 [1]": {"molecular_target": "T1, NLRP3 (Homo sapiens, UniProt Q96P20)", "T1 sequence (Q96P20 whole entry)": "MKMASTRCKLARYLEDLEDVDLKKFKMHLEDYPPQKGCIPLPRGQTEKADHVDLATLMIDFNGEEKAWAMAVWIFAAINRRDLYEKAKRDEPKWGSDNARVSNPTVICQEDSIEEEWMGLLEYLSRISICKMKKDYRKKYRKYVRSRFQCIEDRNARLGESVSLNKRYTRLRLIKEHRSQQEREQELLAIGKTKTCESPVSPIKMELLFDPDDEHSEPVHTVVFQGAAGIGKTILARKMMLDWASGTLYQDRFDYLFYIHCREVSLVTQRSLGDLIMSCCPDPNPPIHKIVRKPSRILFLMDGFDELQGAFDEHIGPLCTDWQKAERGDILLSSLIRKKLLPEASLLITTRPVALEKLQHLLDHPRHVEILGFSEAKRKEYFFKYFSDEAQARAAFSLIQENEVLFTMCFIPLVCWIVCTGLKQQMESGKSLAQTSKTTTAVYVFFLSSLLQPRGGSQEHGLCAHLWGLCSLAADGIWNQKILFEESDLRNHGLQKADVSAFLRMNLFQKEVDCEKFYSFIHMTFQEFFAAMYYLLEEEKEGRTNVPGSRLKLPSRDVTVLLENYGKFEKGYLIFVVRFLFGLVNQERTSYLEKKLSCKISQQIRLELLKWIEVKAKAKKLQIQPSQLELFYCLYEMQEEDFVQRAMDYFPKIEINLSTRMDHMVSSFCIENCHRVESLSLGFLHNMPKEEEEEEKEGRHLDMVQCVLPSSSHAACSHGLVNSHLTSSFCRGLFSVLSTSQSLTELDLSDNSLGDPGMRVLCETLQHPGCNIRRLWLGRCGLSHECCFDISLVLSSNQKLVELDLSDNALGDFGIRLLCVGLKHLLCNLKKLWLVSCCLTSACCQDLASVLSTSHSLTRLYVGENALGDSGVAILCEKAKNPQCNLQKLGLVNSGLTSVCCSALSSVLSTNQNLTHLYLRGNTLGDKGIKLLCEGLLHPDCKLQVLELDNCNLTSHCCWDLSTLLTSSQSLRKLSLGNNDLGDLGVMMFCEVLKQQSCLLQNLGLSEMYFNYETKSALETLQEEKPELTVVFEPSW", "assay": "Human whole blood IL-1β release assay (LPS, nigericin, AlphaLisa)", "set-up": "Human whole blood in Li-heparin tubes was obtained from healthy donors; from tissue; host or cells: human whole blood from healthy donors", "settings": "10 μM nigericin", "description": "For systemic delivery, the ability to inhibit NLRP3 when the compounds are present within the bloodstream is of great importance. For this reason, the NLRP3 inhibitory activity of a number of compounds in human whole blood was investigated in accordance with the following protocol.\nHuman whole blood in Li-heparin tubes was obtained from healthy donors from a volunteer donor panel. • 1. Plate out 80 μl of whole blood containing lug/ml of LPS in 96-well, clear bottom cell culture plate (Corning #3585) • 2. Add 10 μl compound (8 points half-log dilution with 10 μM top dose) or vehicle (DMSO 0.1% FAC) to the appropriate wells • 3. Incubate for 3 hours at 37° C., 5% CO2 • 4. Add 10 μl nigericin (Sigma #N7143) (10 μM FAC) to all wells • 5. Incubate for 1 hr at 37° C., 5% CO2 • 6. At the end of the incubation period, spin plates at 300×g for 5 mins to pellet cells and remove 20 μl of supernatant and add to 96-well v-bottom plates for IL-1β analysis (note: these plates containing the supernatants can be stored at −80° C. to be analysed at a later date) • 7. IL-1β was measured according to the manufacturer protocol (Perkin Elmer-AlphaLisa IL-1 Kit AL220F-5000) • 8. IC50 data is fitted to a non-linear regression equation (log inhibitor vs response-variable slope 4-parameters)"}, "NLRP3 [2]": {"molecular_target": "T1, NLRP3", "assay": "THP-1 cells pyroptosis assay (LPS priming, nigericin, resazurin read-out)", "set-up": "Seed THP-1 cells (25,000 cells/well) containing 1.0 μg/ml LPS; host or cells: THP-1 cells", "settings": "1.0 μg/ml LPS, 5 μM nigericin", "description": "THP-1 cells (ATCC #TIB-202) were grown in RPMI containing L-glutamine (Gibco #11835) supplemented with 1 mM sodium pyruvate (Sigma #S8636) and penicillin (100 units/ml)/streptomycin (0.1 mg/ml) (Sigma #P4333) in 10% Fetal Bovine Serum (FBS) (Sigma #F0804). The cells were routinely passaged and grown to confluency (˜10^6 cells/ml). On the day of the experiment, THP-1 cells were harvested and resuspended into RPMI medium (without FBS). The cells were then counted and viability (>90%) checked by Trypan blue (Sigma #T8154). Appropriate dilutions were made to give a concentration of 625,000 cells/ml. To this diluted cell solution was added LPS (Sigma #L4524) to give a lug/ml Final Assay Concentration (FAC). 40 μl of the final preparation was aliquoted into each well of a 96-well plate. The plate thus prepared was used for compound screening.\nThe following method step-by-step assay was followed for compound screening. • 1. Seed THP-1 cells (25,000 cells/well) containing 1.0 μg/ml LPS in 40 μl of RPMI medium (without FBS) in 96-well, black walled, clear bottom cell culture plates coated with poly-D-lysine (VWR #734-0317) • 2. Add 5 μl compound (8 points half-log dilution, with 10 μM top dose) or vehicle (DMSO 0.1% FAC) to the appropriate wells • 3. Incubate for 3 hours at 37° C., 5% CO2 • 4. Add 5 μl nigericin (Sigma #N7143) (FAC 5 μM) to all wells • 5. Incubate for 1 hr at 37° C., 5% CO2 • 6. At the end of the incubation period, spin plates at 300×g for 3 mins and remove supernatant • 7. Then add 50 μl of resazurin (Sigma #R7017) (FAC 100 μM resazurin in RPMI medium without FBS) and incubate plates for a further 1-2 hours at 37° C. and 5% CO2 • 8. Plates were read in an Envision reader at Ex 560 nm and Em 590 nm • 9. IC50 data is fitted to a non-linear regression equation (log inhibitor vs response-variable slope 4-parameters)"}, "hERG channels": {"molecular_target": "T2, hERG channels (Homo sapiens, UniProt Q12809)", "T2 construct": "Evotec (cryopreserved) ATCC PTA-6812; host or cells: CHO (Chinese hamster ovary) cells", "T2 sequence (Q12809 whole entry)": "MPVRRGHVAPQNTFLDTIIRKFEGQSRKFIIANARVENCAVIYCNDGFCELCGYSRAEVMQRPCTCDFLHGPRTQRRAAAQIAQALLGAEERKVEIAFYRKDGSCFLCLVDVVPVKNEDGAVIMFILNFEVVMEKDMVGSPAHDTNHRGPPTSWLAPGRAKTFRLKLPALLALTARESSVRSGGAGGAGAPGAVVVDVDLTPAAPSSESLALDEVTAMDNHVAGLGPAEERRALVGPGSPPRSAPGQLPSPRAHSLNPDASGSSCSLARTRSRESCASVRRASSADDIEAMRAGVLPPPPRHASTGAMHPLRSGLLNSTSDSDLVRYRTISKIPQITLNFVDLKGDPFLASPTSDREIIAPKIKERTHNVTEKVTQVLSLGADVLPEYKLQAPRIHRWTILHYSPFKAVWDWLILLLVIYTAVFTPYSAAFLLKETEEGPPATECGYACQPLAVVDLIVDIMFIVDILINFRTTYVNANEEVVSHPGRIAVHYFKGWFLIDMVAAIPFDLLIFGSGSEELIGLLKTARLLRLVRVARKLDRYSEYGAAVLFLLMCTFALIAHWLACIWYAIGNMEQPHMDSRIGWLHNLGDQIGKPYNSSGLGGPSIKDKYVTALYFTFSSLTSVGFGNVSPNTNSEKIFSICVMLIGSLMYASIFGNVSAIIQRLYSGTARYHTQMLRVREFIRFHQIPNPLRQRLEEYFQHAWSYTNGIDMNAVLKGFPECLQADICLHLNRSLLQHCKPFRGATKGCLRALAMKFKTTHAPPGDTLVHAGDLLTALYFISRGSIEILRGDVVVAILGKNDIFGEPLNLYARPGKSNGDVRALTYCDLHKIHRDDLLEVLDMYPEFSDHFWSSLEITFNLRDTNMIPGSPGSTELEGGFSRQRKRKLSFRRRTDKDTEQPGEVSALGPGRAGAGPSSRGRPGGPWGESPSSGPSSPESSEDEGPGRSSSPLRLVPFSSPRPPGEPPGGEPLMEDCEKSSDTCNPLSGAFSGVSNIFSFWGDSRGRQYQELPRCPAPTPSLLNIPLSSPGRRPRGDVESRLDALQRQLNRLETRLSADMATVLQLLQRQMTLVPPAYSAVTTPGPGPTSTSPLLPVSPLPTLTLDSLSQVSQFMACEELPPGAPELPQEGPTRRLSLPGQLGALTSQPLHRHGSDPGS", "assay": "hERG screening assay (automated patch clamp, CHO crelox hERG cell line)", "settings": "CHO-hERG cells, whole-cell patch clamp at 35-37° C.", "description": "The CHO crelox hERG cell line (ATCC reference Nr. PTA-6812, female Chinese hamster cells) was generated and validated at Roche. Ready-to-use frozen instant CHO-hERG cells were cryopreserved at Evotec (Germany) and used directly in the experiments.\nThe extracellular solution contains (in mM): NaCl 150; KCl 4; CaCl2) 1; MgCl2 1; HEPES 10; pH 7.2-7.4 with NaOH, osmolarity 290-330 mOsm. The internal solution contains (in mM): KCl, 10; KF, 100; NaCl, 10; HEPES, 10; EGTA, 20; pH=7.0-7.4 with KOH, osmolarity 260-300 mOsm.\nThe effects of a compound on hERG K+-currents parameters will be evaluated at 2 concentrations in at least 4 cells.\nThe hERG test is performed using automated patch clamp system SynchroPatch® 384 (Nanion Technologies GmbH, Germany). K+ currents are measured with the patch-voltage-clamp technique in the whole-cell configuration at 35-37° C.\nCells were held at a resting voltage of −80 mV and they were stimulated by a voltage pattern shown in FIG. 1 to activate hERG channels and conduct outward IKhERG current, at a stimulation frequency of 0.1 Hz (6 bpm)\nThe amplitudes of IKhERG were recorded in each concentration of drug and they were compared to the vehicle control values (taken as 100%) to define fractional blocks. The concentration-response data were fitted with the following relationship: […]"}}}
{"molecule": "CCN1CCC[C@@H](Nc2nnc(-c3ccc(C(F)(F)F)cc3O)c(C)n2)C1", "note": "[Example 4, 2-[3-[[(3R)-1-Ethyl-3-piperidyl]amino]-5-methyl-1,2,4-triazin-6-yl]-5-(trifluoromethyl) phenol]", "values": [{"measurement": "IC50", "setting": "NLRP3 [1]", "value": 0.0054, "unit": "µM"}, {"measurement": "IC50", "setting": "NLRP3 [2]", "value": 0.0017, "unit": "µM"}, {"measurement": "IC50", "setting": "hERG channels", "value": "> 10", "unit": "µM"}]}
{"molecule": "CCN1CCC[C@@H](Nc2nnc(-c3ccc4c(c3O)CCO4)c(C)n2)C1", "note": "[Example 7, 5-[3-[[(3R)-1-Ethyl-3-piperidyl]amino]-5-methyl-1,2,4-triazin-6-yl]-2,3-dihydrobenzofuran-4-ol]", "values": [{"measurement": "IC50", "setting": "NLRP3 [1]", "value": 0.0037, "unit": "µM"}, {"measurement": "IC50", "setting": "NLRP3 [2]", "value": 0.0011, "unit": "µM"}, {"measurement": "IC50", "setting": "hERG channels", "value": "> 20", "unit": "µM"}]}
{"molecule": "Cc1nc(N[C@@H]2CCCC[C@H]2O)nnc1-c1ccc(C(F)(F)F)cc1O", "note": "[Example 19, 2-[3-[[(1R,2R)-2-Hydroxycyclohexyl]amino]-5-methyl-1,2,4-triazin-6-yl]-5-(trifluoromethyl) phenol]", "values": [{"measurement": "IC50", "setting": "NLRP3 [1]", "value": 0.228, "unit": "µM"}, {"measurement": "IC50", "setting": "NLRP3 [2]", "value": 0.0322, "unit": "µM"}]}
{"molecule": "CCN1CCC[C@@H](Nc2nnc(-c3c(C)cc(C(F)(F)F)cc3O)c(C)n2)C1", "note": "[Example 21, 2-[3-[[(3R)-1-Ethyl-3-piperidyl]amino]-5-methyl-1,2,4-triazin-6-yl]-3-methyl-5-(trifluoromethyl) phenol]", "values": [{"measurement": "IC50", "setting": "NLRP3 [1]", "value": 0.0576, "unit": "µM"}, {"measurement": "IC50", "setting": "NLRP3 [2]", "value": 0.0016, "unit": "µM"}]}
{"molecule": "CCN1CCC[C@@H](Nc2nnc(-c3ccc(OC(F)(F)F)cc3O)c(C)n2)C1", "note": "[Example 22, 2-[3-[[(3R)-1-Ethyl-3-piperidyl]amino]-5-methyl-1,2,4-triazin-6-yl]-5-(trifluoromethoxy) phenol]", "values": [{"measurement": "IC50", "setting": "NLRP3 [1]", "value": 0.0102, "unit": "µM"}, {"measurement": "IC50", "setting": "NLRP3 [2]", "value": 0.0012, "unit": "µM"}]}
{"molecule": "CCN1C[C@@H](O)C[C@@H](Nc2nnc(-c3ccc(C(F)(F)F)cc3O)c(C)n2)C1", "note": "[Example 23, (3S,5R)-1-Ethyl-5-[[6-[2-hydroxy-4-(trifluoromethyl)phenyl]-5-methyl-1,2,4-triazin-3-yl]amino]piperidin-3-ol]", "values": [{"measurement": "IC50", "setting": "NLRP3 [1]", "value": 0.0405, "unit": "µM"}, {"measurement": "IC50", "setting": "NLRP3 [2]", "value": 0.0401, "unit": "µM"}]}
{"molecule": "CCN1C[C@@H](O)C[C@@H](Nc2nnc(-c3c(C)cc(C(F)(F)F)cc3O)c(C)n2)C1", "note": "[Example 24, (3S,5R)-1-Ethyl-5-[[6-[2-hydroxy-6-methyl-4-(trifluoromethyl)phenyl]-5-methyl-1,2,4-triazin-3-yl]amino]piperidin-3-ol]", "values": [{"measurement": "IC50", "setting": "NLRP3 [1]", "value": 0.125, "unit": "µM"}, {"measurement": "IC50", "setting": "NLRP3 [2]", "value": 0.0496, "unit": "µM"}]}
{"molecule": "CCN1CCC[C@@H](Nc2nnc(-c3ccc4c(c3O)CCC4)c(C)n2)C1", "note": "[Example 25, 5-[3-[[(3R)-1-Ethyl-3-piperidyl]amino]-5-methyl-1,2,4-triazin-6-yl]indan-4-ol]", "values": [{"measurement": "IC50", "setting": "NLRP3 [1]", "value": 0.0063, "unit": "µM"}, {"measurement": "IC50", "setting": "NLRP3 [2]", "value": 0.0007, "unit": "µM"}]}
